Assay results published in US20240226115A1, “AXL INHIBITOR COMPOUNDS” (ARCUS BIOSCIENCES, INC., priority 2021, published 2024).

Target: T1, Axl (Homo sapiens, UniProt P30530)
T1 sequence (P30530 26-894): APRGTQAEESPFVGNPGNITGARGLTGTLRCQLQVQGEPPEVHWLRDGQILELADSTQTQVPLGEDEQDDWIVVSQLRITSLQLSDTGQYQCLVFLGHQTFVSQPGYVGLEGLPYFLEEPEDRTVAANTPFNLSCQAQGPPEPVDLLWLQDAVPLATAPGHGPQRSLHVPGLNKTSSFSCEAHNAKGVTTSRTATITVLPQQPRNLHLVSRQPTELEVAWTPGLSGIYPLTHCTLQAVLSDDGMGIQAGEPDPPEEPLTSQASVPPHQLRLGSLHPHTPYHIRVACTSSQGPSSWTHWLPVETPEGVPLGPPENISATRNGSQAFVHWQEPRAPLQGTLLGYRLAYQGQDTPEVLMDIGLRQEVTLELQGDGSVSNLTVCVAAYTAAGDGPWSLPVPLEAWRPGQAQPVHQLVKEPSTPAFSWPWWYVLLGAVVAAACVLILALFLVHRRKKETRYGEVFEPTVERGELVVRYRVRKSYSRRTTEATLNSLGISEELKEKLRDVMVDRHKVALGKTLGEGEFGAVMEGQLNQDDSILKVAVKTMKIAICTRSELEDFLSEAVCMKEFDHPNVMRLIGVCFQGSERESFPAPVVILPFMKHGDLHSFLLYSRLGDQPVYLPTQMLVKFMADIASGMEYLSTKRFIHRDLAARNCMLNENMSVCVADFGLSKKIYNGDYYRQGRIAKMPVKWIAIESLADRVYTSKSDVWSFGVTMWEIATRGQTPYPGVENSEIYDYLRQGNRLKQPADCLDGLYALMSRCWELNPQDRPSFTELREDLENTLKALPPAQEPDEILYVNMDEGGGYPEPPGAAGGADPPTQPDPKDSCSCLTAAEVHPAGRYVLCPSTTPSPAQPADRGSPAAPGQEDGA
Assay: Axl NanoBRET intracellular kinase assay (Cell Binding)
Set-up: host or cells: HEK-293
Details: HEK-293 cells transfected with Axl-NanoLuc fusion vector; displacement of K-5 NanoBRET tracer
Procedure, shortened: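 HEK-293 cells transiently transfected with Axl-NanoLuc fusion the day before were pre-incubated with compound for 1 h at 37 °C, 5% CO2 (0.5% DMSO), then with 0.35 μM K-5 NanoBRET tracer for 2 h. Tracer displacement was read as the 610/450 nm BRET ratio; IC50 from 4-parameter fit.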

Compound	IC50 [nM]
C[C@@H]1CCCN1C1CCc2cc(F)c(-c3cnc4[nH]nc(-c5ccc6c(c5)OCCNC6=O)c4c3)cc2CC1 (stereo partly drawn) [Example 58, 8-(5-{3-Fluoro-7-[(2R)-2-methylpyrrolidin-1-yl]-6,7,8,9-tetrahydro-5H-benzo[7]annulen-2-yl}-1H-pyrazolo[3,4-b]pyridin-3-yl)-2,3,4,5-tetrahydro-1,4-benzoxazepin-5-one]	< 100
C[C@@H]1CCCN1C1CCc2ccc(-c3cnc4[nH]nc(-c5cc6c(cc5F)C(=O)NCCO6)c4c3)cc2CC1 (stereo partly drawn) [Example 61, 7-Fluoro-8-(5-{7-[(2R)-2-methylpyrrolidin-1-yl]-6,7,8,9-tetrahydro-5H-benzo[7]annulen-2-yl}-1H-pyrazolo[3,4-b]pyridin-3-yl)-2,3,4,5-tetrahydro-1,4-benzoxazepin-5-one]	< 100
COCCN1CCc2cc(-c3cnc4[nH]nc(-c5ccc6c(c5)OCCNC6=O)c4c3)ccc2C1 [Example 13, 8-(5-(2-(2-Methoxyethyl)-1,2,3,4-tetrahydroisoquinolin-6-yl)-1H-pyrazolo[3,4-b]pyridin-3-yl)-3,4-dihydrobenzo[f][1,4]oxazepin-5(2H)-one]	100 to 1000
C[C@@H]1CCCN1C1CCc2ccc(-c3cnc4[nH]nc(-c5cc(F)c6c(c5)OCCNC6=O)c4c3)cc2CC1 (stereo partly drawn) [Example 6, 6-Fluoro-8-(5-{7-[(2R)-2-methylpyrrolidin-1-yl]-6,7,8,9-tetrahydro-5H-benzo[7]annulen-2-yl}-1H-pyrazolo[3,4-b]pyridin-3-yl)-2,3,4,5-tetrahydro-1,4-benzoxazepin-5-one]	< 100
CC1(O)CCOc2cc(-c3n[nH]c4ncc(-c5ccc6c(c5)CC[C@@H](N5CCCC5)CC6)cc34)ccc21 (stereo partly drawn) [Example 31, 4-Methyl-7-{5-[(7S)-7-(pyrrolidin-1-yl)-6,7,8,9-tetrahydro-5H-benzo[7]annulen-2-yl]-1H-pyrazolo[3,4-b]pyridin-3-yl}-3,4-dihydro-2H-1-benzopyran-4-ol]	< 100
O=C1NCCOc2cc(-c3n[nH]c4ncc(-c5ccc6c(c5)CCC(N5CCOCC5)CC6)cc34)ccc21 (stereo not shown) [Example 47, 8-{5-[7-(Morpholin-4-yl)-6,7,8,9-tetrahydro-5H-benzo[7]annulen-2-yl]-1H-pyrazolo[3,4-b]pyridin-3-yl}-2,3,4,5-tetrahydro-1,4-benzoxazepin-5-one]	< 100
O=C1NCCOc2cc(-c3n[nH]c4ncc(-c5ccc6c(c5)CCN(C5CCCC5)CC6)cc34)ccc21 [Example 7, 8-[5-(3-Cyclopentyl-2,3,4,5-tetrahydro-1H-3-benzazepin-7-yl)-1H-pyrazolo[3,4-b]pyridin-3-yl]-2,3,4,5-tetrahydro-1,4-benzoxazepin-5-one]	< 100

Now from value to compound:

IC50 [nM]	Compound
< 100	O=C1NCCOc2cc(-c3n[nH]c4ncc(-c5ccc6c(c5)CCC(N5CCC[C@H]5CO)CC6)cc34)ccc21 (stereo partly drawn) [Example 50, 8-(5-{7-[(2S)-2-(Hydroxymethyl)pyrrolidin-1-yl]-6,7,8,9-tetrahydro-5H-benzo[7]annulen-2-yl}-1H-pyrazolo[3,4-b]pyridin-3-yl)-2,3,4,5-tetrahydro-1,4-benzoxazepin-5-one]
< 100	C[C@@H]1CCCN1C1CCc2ccc(-c3cnc4[nH]nc(-c5ccc6c(c5)C(=O)NC6(C)C)c4c3)cc2CC1 (stereo partly drawn) [Example 38, 3,3-Dimethyl-6-(5-{7-[(2R)-2-methylpyrrolidin-1-yl]-6,7,8,9-tetrahydro-5H-benzo[7]annulen-2-yl}-1H-pyrazolo[3,4-b]pyridin-3-yl)-2,3-dihydro-1H-isoindol-1-one]
< 100	CC1(C)COc2cc(-c3n[nH]c4ncc(-c5ccc6c(c5)CCC(N5CCCC5)CC6)cc34)ccc2C(=O)N1 (stereo not shown) [Example 35, 3,3-Dimethyl-8-{5-[7-(pyrrolidin-1-yl)-6,7,8,9-tetrahydro-5H-benzo[7]annulen-2-yl]-1H-pyrazolo[3,4-b]pyridin-3-yl}-2,3,4,5-tetrahydro-1,4-benzoxazepin-5-one]
